# Experiments:
# BCL-2:BIM complex [1] = target: T1, BCL-2:BIM complex (Homo sapiens, UniProt P10415); test: Displacement of BIM from immunoprecipitated BCL-2, detergent-free; type: binding; details: 1 μM, detergent-free conditions
# T1 construct: A BCL-2 antibody was used to immunoprecipitate BCL-2 from CLL lysates from four independent patient samples; endogenous in cells; host or cells: freshly isolated primary human CLL cells
# H146 and H1963 = details: in vitro and murine xenograft; cited from earlier work
# BAX = BAX oligomerization in CLL cells; type: cell-based, human; details: 4 hours
# Method: 10^7 freshly isolated CLL cells were incubated with DMSO, 10 nM, 100 nM, or 1 μM ABT-737 or negative control enantiomer for 4 hours, % dead assessed by Annexin-V staining and FACS analysis, then treated with 0.3% saponin and 10 μM BMH for 30 minutes on ice. Cells were then lysed, loaded onto a 10% BISTris polyacrlyamide gel, transferred, and immunoblotted for BAX.
# BCL-2:BIM complex [2] = target: T1, BCL-2:BIM complex; test: BCL-2 immunoprecipitation from treated primary CLL cells; type: cell-based; details: 100 nM, 24 hours
# CLL mitochondria = test: Cytochrome c release from CLL mitochondria; type: biochemical, human; details: peptides or compounds 100 μM
# Method: Alternatively, mitochondria were purified from freshly isolated CLL cells and cell lines by mechanical disruption followed by differential centrifugation, as previously described (Letai et al., 2002). Mitochondrial suspensions were made at 0.5 mg protein/ml, except for the case of ABT-737 and negative control enantiomer treatments, where 0.1 mg/ml was used. Release of cytochrome c was determined by a comparison of cytochrome c in the pellet and supernatant quantitated by ELISA (R&D systems).
# CLL mitochondria were incubated with BH3 peptides as well as ABT-737 and negative control enantiomer (FIG. 14). […] This pattern is diagnostic of mitochondrial BCL-2 dependence. […] Since the BH3 peptides in the sensitizer panel lack the ability to directly activate BAX and BAK, these experiments also implicated the presence of an activator molecule constitutively sequestered by BCL-2 in CLL.
# 2B4 cells = test: 2B4 cell viability with dexamethasone by Annexin V; type: cell-based, murine; details: 24 hours
# From the text: Cells were stained with fluorescent conjugates of Annexin-V (BioVision) and propidium iodide (PI) and analyzed on a FACSCalibur machine (Becton-Dickinson).
# T1 sequence (P10415 whole entry, one chain of several): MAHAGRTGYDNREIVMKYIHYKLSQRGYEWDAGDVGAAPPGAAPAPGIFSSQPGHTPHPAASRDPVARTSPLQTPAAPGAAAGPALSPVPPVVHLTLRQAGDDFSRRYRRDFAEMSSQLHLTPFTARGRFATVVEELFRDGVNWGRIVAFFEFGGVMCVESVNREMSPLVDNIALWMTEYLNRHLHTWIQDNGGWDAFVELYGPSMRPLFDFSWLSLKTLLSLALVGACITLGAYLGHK
smiles,measurement,setting,value
CN(C)CC[C@H](CSc1ccccc1)Nc1ccc(S(=O)(=O)NC(=O)c2ccc(N3CCN(Cc4ccccc4-c4ccc(Cl)cc4)CC3)cc2)cc1[N+](=O)[O-] [ABT-737],displacement of BIM from BCL-2 into the supernatant,BCL-2:BIM complex [1],displaces BIM from BCL-2 into the supernatant
same,sensitivity of H146 and H1963 to treatment,H146 and H1963,sensitive to treatment with ABT-737 in vitro and in an in vivo murine xenograft model
same,oligomerization of BAX,BAX,oligomerization of BAX within four hours
same,amount of BIM bound to BCL-2,BCL-2:BIM complex [2],causes a dramatic reduction in the amount of BIM bound to BCL-2
same,cytochrome c release,CLL mitochondria,also induced cytochrome c release
same,effect on cell survival,2B4 cells; BCL-2-protected dexamethasone-treated 2B4 cells,very sensitive to ABT-737
same,effect on cell survival,2B4 cells; MCL-1-protected dexamethasone-treated 2B4 cells,has no effect
